Source: PMC10504053, “First-in-Human PET Imaging of [^18F]SDM-4MP3: A Cautionary Tale” (Molecular Imaging, 2023)
pKi: −log10 of the molar value.

Columns and labels:
[1] = target: SV2A; parameters: method as in PMID 34722967, PMID 24446373; details: affinity to SV2A, in vitro binding; cited from earlier work
[2] = target: T1, synaptic vesicle protein 2A (SV2A) (Homo sapiens, UniProt Q7L0J3); experiment: Human brain PET imaging (SUV, SUVR, 1-TCM VT with arterial input function); format: in vivo; details: for VT (SE %) from fitting of 1-TCM: human brain PET; for time of peak brain uptake: P1 ([18F]SDM-4MP3) vs P3 ([18F]SynVesT-1); for SUVR: 60-90 min, centrum semiovale reference
T1 construct: from tissue; host or cells: brain of living human participants (in vivo PET)
Excerpt: All human components of the study were approved according to the Research Ethics Board for Human Subjects at CAMH (CTA 125, REB 075/2019). All participants were recruited from the community and provided written informed consent. Participant inclusion criteria were self-report of good health. Exclusion criteria included any history of neurological or psychiatric disorder; cognitive impairment according to MoCA assessment (score less than 26); pregnancy and/or nursing; and disorders of coagulation, blood, or ongoing use of anticoagulant medication. Each participant's height, weight, current medications, and smoking status was recorded. Participants abstained from taking […] medications, including aspirin [13], for 24 hours prior to the PET exam (see Table 1).
Participants were scanned on a 5-ring GE Discovery MI PET/CT (GE Healthcare Technologies, Chicago, Illinois). Participants 1 and 2 (P1 and P2) were scanned with [^18F]SDM-4MP3 (the radiopharmaceutical synthesized from the ABX precursor), and [^18F]SynVesT-1 (synthesized from the Yale precursor) was used for PET imaging of participants 3 and 4 (P3 and P4). A thermoplastic facemask (Tru-Scan Imaging, Annapolis) was used to restrict head motion within the PET scanner bore. CT was used to acquire a scout scan, followed by a low-dose scan for attenuation correction. The radiopharmaceutical (target dose 185 MBq ± 10%, molar activity > 11 GBq/μmol) was delivered starting 30 s after the initiation of the emission scan, with a smooth bolus injection by hand (2-5 s) via intravenous line placed in the antecubital vein, followed by a 10 mL saline flush to clear residual activity from the line. Emission data was acquired for 120-125 min, allowing up to 5 min for a background frame sampled at 1 s intervals to determine the precise starting time of brain uptake, and used to establish the duration of the background frame inserted prior to dynamic frame reconstruction. Data acquired after the start of brain uptake was reconstructed into frames using FORE rebinning and filtered back-projection, using a Hanning filter at the Nyquist frequency to create a dynamic image set. Frame definitions were 30 s × 3, 60 s × 3, 120 s × 2, 300 s × 22 (total = 120 min). For use as a reference for motion correction, images were also reconstructed without attenuation correction using an iterative method with 4 subsets and 6 iterations. All reconstructions were performed using vendor algorithms on the GE DMI console. […] A spatial resolution of approximately 5.8 × 5.8 × 5.6 mm was achieved (measured in accordance with National Electrical Manufacturers Association NU 2-2007 standards). The mean injected activity was 192.7 MBq for [^18F]SDM-4MP3 and 184.3 MBq for [^18F]SynVesT-1 (Table 1).
(§1) The arterial line was placed into the radial artery by a qualified respiratory therapist. Up to 160 mL of arterial blood was collected via automated blood sampler (ABSS, Comecer PBS-101) and via manual samples for plasma metabolite correction. The ABSS protocol was started ~15 s after emission scan start, and pump speed was set to 300 mL/h, to reduce dispersion in ABSS lines during maximum rate of change of arterial activity concentration, at 1 s sampling period for 5 min and 2 s sampling period for 136 s. Pump speed was decreased to 180 mL/h at a sampling period of 5 s for the following 360 s and a sampling period of 10 s for 540 s, for a total sampling time of 22 min and 16 s. Manual samples were collected at baseline, 2.5, 7, 12, 15, 20, 30, 45, 60, 90, and 110 min relative to emission scan start into PTFE tubes, followed by a saline flush for all except 2.5- and 7-min samples to avoid discontinuities in arterial data during peak uptake.
(1) Image Registration and Region of Interest. […]

[3] = Arterial plasma radiometabolite analysis (column-switching HPLC) in human participants; format: in vivo; details: human arterial plasma parent fraction, compared with [18F]SynVesT-1
Description: as §1, with “Manual samples were collected at baseline, 2.5, 7, 12, 15, 20, 30, 45, 60, 90, and 110 min relative to emission scan start into PTFE tubes, followed by a saline flush for all except 2.5- and 7-min samples to avoid discontinuities in arterial data during peak uptake.” left out
Baseline whole blood samples were centrifuged at 3100 RPM at room temperature for 5 min to extract plasma. […] Each subsequent manual sample was centrifuged at 3900 rpm at 4°C for 5 min, and 0.3 mL of whole blood and 0.3 mL of plasma were extracted and measured on a gamma counter (Wizard 2480, Perkin Elmer, Turku, Finland) to quantify activity concentration.
(1) Column-Switching HPLC. […] Samples were initially analyzed in capture mode with the capture solvent flow rate of 1.8 mL/min for 4 min before switching to analysis mode with the analysis solvent running at 1.8 mL/min for an additional 12 min. […]

[4] = target: T2, synaptic vesicle protein 2A (SV2A) (Rattus norvegicus, UniProt Q02563); experiment: Preclinical PET imaging in rats (whole-brain uptake); format: in vivo, Sprague-Dawley rats; details: for initial peak uptake in the rodent brain: rat whole-brain time-activity curve
T2 construct: from tissue; host or cells: brain of living Sprague-Dawley rats (in vivo PET)
Description: Preclinical PET imaging studies were approved by the Animal Care Committee at CAMH (Animal Use Protocol #838). Six adult Sprague-Dawley rats were scanned for 120 min on either a Mediso nanoScan PET/MR 3 T or PET/CT scanner (Budapest, Hungary), and the images were analyzed using VivoQuant® software (version 4.1, Invicro LLC, Needham, MA, USA), as described previously. Five rats (3 M/2F, 528 ± 46 g) were used for the baseline [^18F]SynVesT-1 scans (injected dose: 13.3 ± 3.2 MBq; molar activity: 157 ± 64 GBq/μmol; mass injected: 0.22 ± 0.08 nmol/kg), with two of the male rats also scanned after injection of the blocking drug levetiracetam (cat#L1784, LKT Laboratories Inc, St Paul, MN, USA) at 30 mg/kg (i.v., 15 min before the tracer; injected dose: 10.2 ± 0.1 MBq; molar activity: 78 ± 15 GBq/μmol; injected mass: 0.24 ± 0.04 nmol/kg). One female rat (273 g) was used for the 120 min scan with [^18F]SDM-4MP3 (injected dose: 13.0 MBq; molar activity: 125.5 GBq/μmol; injected mass: 0.38 nmol/kg). Acquired list mode data were sorted into thirty-nine 3-dimensional (3D) (3 × 5 s, 3 × 15 s, 3 × 20 s, 7 × 60 s, 17 × 180 s, and 6 × 600 s) true sinograms (ring difference 84) and reconstructed with a 2D filtered back-projection algorithm with corrections for detector geometry, efficiencies, attenuation, and scatter and dead time and were decay-corrected to the start of acquisition. Static images of the complete emission acquisition (0-120 min) were reconstructed with the manufacturer's proprietary iterative 3D algorithm (6 subsets and 4 iterations). SUVs were calculated by normalizing regional radioactivity for injected radioactivity and body weight.

[5] = human brain time-activity curves

T2 sequence (Q02563 whole entry): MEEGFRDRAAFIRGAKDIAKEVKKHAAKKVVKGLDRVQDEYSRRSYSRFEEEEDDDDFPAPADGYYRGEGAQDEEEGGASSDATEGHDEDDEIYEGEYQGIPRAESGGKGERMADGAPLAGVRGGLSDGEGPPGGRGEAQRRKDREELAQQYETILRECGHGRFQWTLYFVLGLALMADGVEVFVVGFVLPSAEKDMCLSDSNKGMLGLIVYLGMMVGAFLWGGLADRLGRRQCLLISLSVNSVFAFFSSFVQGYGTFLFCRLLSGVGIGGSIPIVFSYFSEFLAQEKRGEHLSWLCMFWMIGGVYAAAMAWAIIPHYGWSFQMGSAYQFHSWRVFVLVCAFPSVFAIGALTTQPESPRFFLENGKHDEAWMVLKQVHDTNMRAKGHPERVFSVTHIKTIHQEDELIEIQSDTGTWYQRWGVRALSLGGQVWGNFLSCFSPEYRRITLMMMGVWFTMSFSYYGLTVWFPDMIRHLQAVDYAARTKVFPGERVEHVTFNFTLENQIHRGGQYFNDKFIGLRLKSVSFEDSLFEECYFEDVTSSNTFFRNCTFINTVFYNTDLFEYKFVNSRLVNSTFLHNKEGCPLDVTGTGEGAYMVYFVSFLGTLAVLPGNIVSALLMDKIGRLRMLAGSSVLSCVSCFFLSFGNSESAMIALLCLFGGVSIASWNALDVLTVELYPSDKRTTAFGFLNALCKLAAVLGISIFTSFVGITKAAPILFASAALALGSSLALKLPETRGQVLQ
T1 sequence (Q7L0J3 whole entry): as the sequence (Q02563 whole entry) above, with E53D, A62S, A71T, D144E, T154A, S440G, A482S, V572I, L634M counted along it

## Cc1ccncc1CN1CC(c2cc(F)cc(F)c2)CC1=O (centres unmarked) [SDM-4MP3]
[1]
  pKi: 6.54

## Cc1cnccc1CN1C[C@@H](c2cc(F)cc(F)c2)CC1=O [SynVesT-1]
[1]
  pKi: 8.51

## Cc1ccncc1CN1C[C@@H](c2cc(F)cc([18F])c2)CC1=O [[^18F]SDM-4MP3]
[2]; Centrum semiovale, participant P1
  VT (SE %) from fitting of 1-TCM: 1.6 (1.8%)
[2]; Centrum semiovale, participant P2
  VT (SE %) from fitting of 1-TCM: 1.7 (2.0%)
[2]; Cerebellum, participant P1
  VT (SE %) from fitting of 1-TCM: 1.6 (1.4%)
[2]; Frontal cortex, participant P1
  VT (SE %) from fitting of 1-TCM: 1.8 (1.6%)
[2]; Frontal cortex, participant P2
  VT (SE %) from fitting of 1-TCM: 1.9 (3.4%)
[2]; Hippocampus, participant P1
  VT (SE %) from fitting of 1-TCM: 1.8 (1.4%)
[2]; Hippocampus, participant P2
  VT (SE %) from fitting of 1-TCM: 1.8 (3.4%)
[2]; Putamen, participant P1
  VT (SE %) from fitting of 1-TCM: 2.0 (1.3%)
[2]; Putamen, participant P2
  VT (SE %) from fitting of 1-TCM: 2.1 (3.4%)
[2]; human brain time-activity curves, P1
  initial brain penetration (SUV): ~ 7 SUV
[2]; human brain time-activity curves, in contrast to [18F]SynVesT-1
  clearance from brain: rapid clearance from brain
[2]; [5]
  time of peak brain uptake: 2.5 min
[2]; human, one-tissue compartment model, vs expected for [18F]SynVesT-1
  factor by which VT estimates were lower than expected: > 10
[2]; throughout the brain, human
  SUVR: under 2
[3]
  rate of radiometabolism: slightly slower
[4]; baseline
  initial peak uptake in the rodent brain: 3.2 SUV
[4]; rat, barely above tissues outside of the brain
  brain uptake in 0-120 min static image: very limited brain uptake
[4]; rat, vs. [18F]SynVesT-1
  whole-brain TAC clearance: much faster clearance
[4]; rat, comparator scans after levetiracetam 30 mg/kg i.v. 15 min before tracer
  brain uptake relative to blocked [18F]SynVesT-1 scans: lower than [^18F]SynVesT-1 scans performed under preblocking conditions with levetiracetam

## Cc1cnccc1CN1C[C@@H](c2cc(F)cc([18F])c2)CC1=O [[^18F]SynVesT-1, reference compound]
[2]; Centrum semiovale, participant P3
  VT (SE %) from fitting of 1-TCM: 2.9 (1.4%)
[2]; Centrum semiovale, participant P4
  VT (SE %) from fitting of 1-TCM: 3.5 (7.7%)
[2]; Cerebellum, participant P3
  VT (SE %) from fitting of 1-TCM: 13.1 (0.7%)
[2]; Cerebellum, participant P4
  VT (SE %) from fitting of 1-TCM: 16.3 (4.9%)
[2]; Frontal cortex, participant P3
  VT (SE %) from fitting of 1-TCM: 15.4 (0.4%)
[2]; Frontal cortex, participant P4
  VT (SE %) from fitting of 1-TCM: 18.3 (5.1%)
[2]; Hippocampus, participant P3
  VT (SE %) from fitting of 1-TCM: 14.9 (0.6%)
[2]; Hippocampus, participant P4
  VT (SE %) from fitting of 1-TCM: 17.0 (6.2%)
[2]; Putamen, participant P3
  VT (SE %) from fitting of 1-TCM: 16.1 (0.5%)
[2]; Putamen, participant P4
  VT (SE %) from fitting of 1-TCM: 22.23 (4.7%)
[2]; cortical regions, human
  SUVR: greater than 7
[2]; [5]
  time of peak brain uptake: 20 min
[4]; baseline
  initial peak uptake in the rodent brain: 7.6 ± 0.7 SUV
[4]; rat, 0-120 min static image, baseline
  brain uptake SUVs in static image: ~8 SUV
